# Biological target: T1, HCV NS3-4A serine protease (full-length NS3-4A protein, genotype 1a, strain HCV-1) (Hepatitis C virus genotype 1a, UniProt P26664)
# T1 construct: using the full-length NS3-4A protein (genotype 1a, strain HCV-1)
# Experiment: HCV NS3-4A protease assay
# Format: biochemical
# Conditions: Protease IC50
# Protocol: The inhibitory activity of certain compounds of Table A against HCV NS3-4A serine protease is determined in a homogenous assay using the full-length NS3-4A protein (genotype 1a, strain HCV-1) and a commercially available internally-quenched fluorogenic peptide substrate as described by Taliani, M., et al. 1996 Anal. Biochem. 240:60-67, which is incorporated by reference in its entirety.
# T1 sequence (P26664 1658-1711): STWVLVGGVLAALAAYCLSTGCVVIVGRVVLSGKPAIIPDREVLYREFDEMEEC
# T1 sequence (P26664 1027-1657): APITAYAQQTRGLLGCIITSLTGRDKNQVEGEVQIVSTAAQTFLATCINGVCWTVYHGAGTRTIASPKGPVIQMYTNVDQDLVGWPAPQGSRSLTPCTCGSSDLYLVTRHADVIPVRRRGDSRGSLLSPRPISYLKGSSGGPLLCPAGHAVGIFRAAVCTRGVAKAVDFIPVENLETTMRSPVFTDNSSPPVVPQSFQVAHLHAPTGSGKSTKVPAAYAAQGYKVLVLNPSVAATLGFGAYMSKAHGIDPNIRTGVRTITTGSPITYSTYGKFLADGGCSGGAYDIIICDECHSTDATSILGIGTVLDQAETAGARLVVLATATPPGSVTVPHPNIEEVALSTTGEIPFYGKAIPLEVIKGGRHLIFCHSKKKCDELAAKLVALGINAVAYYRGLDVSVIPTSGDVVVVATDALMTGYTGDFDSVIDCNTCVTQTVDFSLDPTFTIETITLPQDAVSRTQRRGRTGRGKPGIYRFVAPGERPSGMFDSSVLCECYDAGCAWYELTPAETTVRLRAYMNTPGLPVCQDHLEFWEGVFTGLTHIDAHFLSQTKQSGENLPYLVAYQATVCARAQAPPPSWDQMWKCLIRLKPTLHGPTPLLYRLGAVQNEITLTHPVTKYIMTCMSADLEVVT
row,SMILES,IC50 [nM]
1,"C=C[C@@H]1C[C@]1(NC(=O)[C@@H]1C[C@@]2(CN1C(=O)[C@@H](NC(=O)[C@@H](NC(=O)c1[nH]c(C)c(C)c1C(C)=O)C1CCCCC1)C(C)(C)C)C(C)(C)C21CCC1)C(=O)NS(=O)(=O)C1CC1 [Compound 118, (5R,8S)-7-[(2S)-2-{[(2S)-2-{[(3-acetyl-4,5-dimethyl-1H-pyrrol-2-yl)carbonyl]amino}-2-cyclohexylacetyl]amino}-3,3-dimethylbutanoyl]-N-{(1R,2S)-1-[(cyclopropylsulfonyl)carba-moyl]-2-vinylcyclopropyl}-10,10-dimethyl-7-azadispiro[3.0.4.1]decane-8-carboxamide]",1.4
2,"C=C[C@@H]1C[C@]1(NC(=O)[C@@H]1C[C@@]2(CN1C(=O)[C@@H](NC(=O)[C@@H](NC(=O)C(C)(C)N1CCCCC1)C(C)(C)C)C(C)(C)C)C(C)(C)C21CCC1)C(=O)NS(=O)(=O)C1CC1 [Compound 119, (5R,8S)-N-{(1R,2S)-1-[(cyclopropylsulfonyl)carba-moyl]-2-vinylcyclopropyl}-7-[(2S)-2-({(2S)-3,3-dimethyl-2-[(2-methyl-2-piperidin-1-ylpropanoyl)amino]butanoyl}amino)-3,3-dimethylbutanoyl]-10,10-dimethyl-7-azadispiro[3.0.4.1]decane-8-carboxamide]",3.5
3,"C=C[C@@H]1C[C@]1(NC(=O)[C@@H]1C[C@@]2(CN1C(=O)[C@@H](NC(=O)[C@@H](NC(=O)c1nc3ccccc3[nH]1)C(C)(C)C)C(C)(C)C)C(C)(C)C21CCC1)C(=O)NS(=O)(=O)C1CC1 [Compound 120, (5R,8S)-7-[(2S)-2-({(2S)-2-[(1H-benzimidazol-2-ylcarbonyl)amino]-3,3-dimethylbutanoyl}amino)-3,3-dimethylbutanoyl]-N-{(1R,2S)-1-[(cyclopropylsulfonyl)carba-moyl]-2-vinylcyclopropyl}-10,10-dimethyl-7-azadispiro[3.0.4.1]decane-8-carboxamide]",0.7
4,"C=C[C@@H]1C[C@]1(NC(=O)[C@@H]1C[C@@]2(CN1C(=O)[C@@H](NC(=O)[C@@H](NC(=O)c1ccno1)C(C)(C)C)C(C)(C)C)C(C)(C)C21CCC1)C(=O)NS(=O)(=O)C1CC1 [Compound 121, (5R,8S)-N-{(1R,2S)-1-[(cyclopropylsulfonyl)carba-moyl]-2-vinylcyclopropyl}-7-[(2S)-2-({(2S)-2-[(isoxazol-5-ylcarbonyl)amino]-3,3-dimethylbutanoyl}amino)-3,3-dimethylbutanoyl]-10,10-dimethyl-7-azadispiro[3.0.4.1]decane-8-carboxamide]",9
5,"C=C[C@@H]1C[C@]1(NC(=O)[C@@H]1C[C@@]2(CN1C(=O)[C@@H](NC(=O)[C@@H](NC(=O)c1ncc[nH]1)C(C)(C)C)C(C)(C)C)C(C)(C)C21CCC1)C(=O)NS(=O)(=O)C1CC1 [Compound 122, (5R,8S)-N-{(1R,2S)-1-[(cyclopropylsulfonyl)carba-moyl]-2-vinylcyclopropyl}-7-[(2S)-2-({(2S)-2-[(1H-imidazol-2-ylcarbonyl)amino]-3,3-dimethylbutanoyl}amino)-3,3-dimethylbutanoyl]-10,10-dimethyl-7-azadispiro[3.0.4.1]decane-8-carboxamide]",3
6,"C=C[C@H]1C[C@@]1(NC(=O)C1C[C@@]2(CN1C(=O)[C@@H](NC(=O)[C@@H](NC(=O)C1CCN1C(C)(C)C)C(C)(C)C)C(C)(C)C)C(C)(C)C21CCC1)C(=O)NS(=O)(=O)C1CC1 (stereo partly drawn) [Compound 123, (5R)-7-[(2S)-2-{[(2S)-2-{[(1-tert-butylazetidin-2-yl)carbonyl]amino}-3,3-dimethylbutanoyl]amino}-3,3-dimethylbutanoyl]-N-{(1S,2R)-1-[(cyclopropylsulfonyl)carba-moyl]-2-vinylcyclopropyl}-10,10-dimethyl-7-azadispiro[3.0.4.1]decane-8-carboxamide]",6
7,"C=C[C@@H]1C[C@]1(NC(=O)[C@@H]1C[C@@]2(CN1C(=O)[C@@H](NC(=O)C(NC(=O)c1ccccc1Nc1ccccc1)C1CCCCC1)C(C)(C)C)C(C)(C)C21CCC1)C(=O)NS(=O)(=O)C1CC1 (stereo partly drawn) [Compound 124, (5R,8S)-7-[(2S)-2-({[(2-anilinobenzoyl)amino](cyclo-hexyl)acetyl}amino)-3,3-dimethylbutanoyl]-N-{(1R,2S)-1-[(cyclopropylsulfonyl)carba-moyl]-2-vinylcyclopropyl}-10,10-dimethyl-7-azadispiro[3.0.4.1]decane-8-carboxamide]",30
8,"C=C[C@@H]1C[C@]1(NC(=O)[C@@H]1C[C@@]2(CN1C(=O)[C@@H](NC(=O)C(NC(=O)c1cc3ccccc3[nH]1)C1CCCCC1)C(C)(C)C)C(C)(C)C21CCC1)C(=O)NS(=O)(=O)C1CC1 (stereo partly drawn) [Compound 125, (5R,8S)-7-[(2S)-2-({cyclohexyl[(1H-indol-2-ylcarbonyl)amino]acetyl}amino)-3,3-dimethylbutanoyl]-N-{(1R,2S)-1-[(cyclopropylsulfonyl)carba-moyl]-2-vinylcyclopropyl}-10,10-dimethyl-7-azadispiro[3.0.4.1]decane-8-carboxamide]",1.5
9,"C=C[C@@H]1C[C@]1(NC(=O)[C@@H]1C[C@@]2(CN1C(=O)[C@@H](NC(=O)C(NC(=O)c1cc(C(C)(C)C)nn1C)C1CCCCC1)C(C)(C)C)C(C)(C)C21CCC1)C(=O)NS(=O)(=O)C1CC1 (stereo partly drawn) [Compound 126, (5R,8S)-7-[(2S)-2-{[{[(3-tert-butyl-1-methyl-1H-pyrazol-5-yl)carbonyl]amino}(cyclohex-yl)acetyl]amino}-3,3-dimethylbutanoyl]-N-{(1R,2S)-1-[(cyclopropylsulfonyl)carba-moyl]-2-vinylcyclopropyl}-10,10-dimethyl-7-azadispiro[3.0.4.1]decane-8-carboxamide]",8
10,"C=C[C@@H]1C[C@]1(NC(=O)[C@@H]1C[C@@]2(CN1C(=O)[C@@H](NC(=O)C(NC(=O)c1nccc3ccccc13)C1CCCCC1)C(C)(C)C)C(C)(C)C21CCC1)C(=O)NS(=O)(=O)C1CC1 (stereo partly drawn) [Compound 127, (5R,8S)-7-[(2S)-2-({cyclohexyl[(isoquinolin-1-ylcarbonyl)amino]acetyl}amino)-3,3-dimethylbutanoyl]-N-{(1R,2S)-1-[(cyclopropylsulfonyl)carba-moyl]-2-vinylcyclopropyl}-10,10-dimethyl-7-azadispiro[3.0.4.1]decane-8-carboxamide]",8
11,"C=C[C@H]1C[C@@]1(NC(=O)[C@@H]1C[C@@]2(CN1C(=O)[C@@H](NC(=O)[C@@H](NC(=O)c1ccccc1N(C)C)C(C)(C)C)C(C)(C)C)C(C)(C)C21CCC1)C(=O)NS(=O)(=O)C1CC1 [Compound 130, (5R,8S)-N-{(1S,2R)-1-[(cyclopropylsulfonyl)carba-moyl]-2-vinylcyclopropyl}-7-[(2S)-2-{[(2S)-2-{[2-(dimethylamino)benzoyl]amino}-3,3-dimethylbutanoyl]amino}-3,3-dimethylbutanoyl]-10,10-dimethyl-7-azadispiro[3.0.4.1]decane-8-carboxamide]",5.5
12,"C=C[C@@H]1C[C@]1(NC(=O)[C@@H]1C[C@@]2(CN1C(=O)[C@@H](NC(=O)[C@@H](NC(=O)[C@@H]1CCN1C(C)C)C(C)(C)C)C(C)(C)C)C(C)(C)C21CCC1)C(=O)NS(=O)(=O)C1CC1 [Compound 131, (5R,8S)-N-{(1R,2S)-1-[(cyclopropylsulfonyl)carba-moyl]-2-vinylcyclopropyl}-7-[(2S)-2-{[(2S)-2-({[(2S)-1-isopropylazetidin-2-yl]carbonyl}amino)-3,3-dimethylbutanoyl]amino}-3,3-dimethylbutanoyl]-10,10-dimethyl-7-azadispiro[3.0.4.1]decane-8-carboxamide]",0.8
13,"C=C1CC(NC(=O)[C@@H]2C[C@@]3(CN2C(=O)[C@@H](NC(=O)[C@@H](NC(=O)[C@@H]2CCCCN2C(C)C)C(C)(C)C)C(C)(C)C)C(C)(C)C32CCC2)(C(=O)NS(=O)(=O)C2CC2)C1 [Compound 132, (5R,8S)-N-{1-[(cyclopropylsulfonyl)carba-moyl]-3-methylenecyclobutyl}-7-[(2S)-2-{[(2S)-2-({[(2S)-1-isopropylpiperidin-2-yl]carbonyl}amino)-3,3-dimethylbutanoyl]amino}-3,3-dimethylbutanoyl]-10,10-dimethyl-7-azadispiro[3.0.4.1]decane-8-carboxamide]",1300
14,"CC(C)N1CCCC[C@H]1C(=O)N[C@H](C(=O)N[C@H](C(=O)N1C[C@]2(C[C@H]1C(=O)NC1(C(=O)NS(=O)(=O)C3CC3)CCC1)C(C)(C)C21CCC1)C(C)(C)C)C(C)(C)C [Compound 133, (5R,8S)-N-{1-[(cyclopropylsulfonyl)carba-moyl]cyclobutyl}-7-[(2S)-2-{[(2S)-2-({[(2S)-1-isopropylpiperidin-2-yl]carbonyl}amino)-3,3-dimethylbutanoyl]amino}-3,3-dimethylbutanoyl]-10,10-dimethyl-7-azadispiro[3.0.4.1]decane-8-carboxamide]",450
15,"CC[C@@H]1C[C@]1(NC(=O)[C@@H]1C[C@@]2(CN1C(=O)[C@@H](NC(=O)[C@@H](NC(=O)c1cnccn1)C(C)(C)C)C(C)(C)C)C(C)(C)C21CCC1)C(=O)NS(=O)(=O)C1CC1 [Compound 134, (5R,8S)-N-{(1R,2R)-1-[(cyclopropylsulfonyl)carba-moyl]-2-ethylcyclopropyl}-7-[(2S)-2-({(2S)-3,3-dimethyl-2-[(pyrazin-2-ylcarbonyl)amino]butanoyl}amino)-3,3-dimethylbutanoyl]-10,10-dimethyl-7-azadispiro[3.0.4.1]decane-8-carboxamide]",40
16,"C=C[C@@H]1C[C@]1(NC(=O)[C@@H]1C[C@@]2(CN1C(=O)[C@@H](NC(=O)[C@@H](NC(=O)[C@H]1CCN1C(C)C)C(C)(C)C)C(C)(C)C)C(C)(C)C21CCC1)C(=O)NS(=O)(=O)C1CC1 [Compound 135, (5R,8S)-N-{(1R,2S)-1-[(cyclopropylsulfonyl)carba-moyl]-2-vinylcyclopropyl}-7-[(2S)-2-{[(2S)-2-({[(2R)-1-isopropylazetidin-2-yl]carbonyl}amino)-3,3-dimethylbutanoyl]amino}-3,3-dimethylbutanoyl]-10,10-dimethyl-7-azadispiro[3.0.4.1]decane-8-carboxamide]",15

# From patent US20110182850A1, “ORGANIC COMPOUNDS AND THEIR USES” (priority 2009, published 2011)
